Measured values reported in patent US20190359989A1, “FUSION PROTEIN AND APPLICATIONS THEREOF” (CARSGEN THERAPEUTICS CO., LTD., priority 2016, published 2019).
Where a SMILES comes first, the peptide text is derived from it. [ ]: non-standard residue; d: D form. Dolaproine = CO[C@@H]([C@@H]1CCCN1)[C@@H](C)C(=O)O; Dil = CC[C@H](C)[C@H](NC)[C@@H](CC(=O)O)OC; NMeV = CN[C@H](C(=O)O)C(C)C

Legend:
FR806-positive HEK293T = test: Cell killing experiment on EGFR+ HEK293T cells expressing FR806; type: cell-based
Source text: Moreover, the applicant selected EGFR+ HEK293T cells expressing FR806, and subjected them to cell killing experiments.

FR806-negative HEK293T = test: Cell killing experiment on FR806-negative EGFR+ HEK293T cells; type: cell-based
FR806-positive T cells = test: CCK8 assay for killing FR806-expressing T cells; type: cell-based, human; details: CCK8, 72 h, 10-1000 nM
Procedure: Experimental group: T cells expressing eGFP-FR806 after sorted in Example 3 were plated in a 96-well plate at 3×10^4 cells per well in 100 ul of medium, 5 replicate wells per drug concentration, and then a blank group of medium was set. Control group: T cells that were not infected with the virus were taken and plated in a 96-well plate according to the operation of the experimental group. […] After 72 h, 10 ul of CCK8 reagent (Dojindo) was added to each well and incubated at 37° C. for 3 h, and the absorbance was measured at 450 nm by a microplate reader to calculate the cell viability.
According to the above procedure, the sorted T cells infected with eGFP-FR806 were taken and plated in a 96-well plate at 3×10^4 cells per well in 100 ul of culture medium, 5 replicate wells per drug concentration, and then a blank group of medium was set. The control group was uninfected T cells, which were plated in a 96-well plate by the same method. Six concentrations of free MMAFs of 1000 nM, 500 nM, 100 nM, 50 nM, 10 nM and 0 nM were added to T cells at specific concentrations to prepare six gradients (i.e., the aforementioned six concentrations). After 72 h, 10 ul of CCK8 reagent (Dojindo) was added to each well for 3 h at 37° C., and the absorbance was measured at 450 nm by a microplate reader to calculate the cell viability. […]

[1] = biological target: T1, EGFR on Keratinocyte cells and HEK-293T cells (human, UniProt P00533 25-1210); test: FACS on Keratinocyte cells and HEK-293T cells expressing EGFR
T1 construct: whole, on cells; also called epidermal growth factor receptor

Row | binding result [1] | Molecule | killing of FR806-positive HEK293T (FR806-positive HEK293T) | killing of FR806-negative HEK293T (FR806-negative HEK293T) | killing levels to T cells expressing and not expressing FR806 (FR806-positive T cells)
1 |  | CC[C@H](C)[C@@H]([C@@H](CC(=O)N1CCC[C@H]1[C@H](OC)[C@@H](C)C(=O)N[C@@H](Cc1ccccc1)C(=O)O)OC)N(C)C(=O)[C@@H](NC(=O)[C@@H](NC)C(C)C)C(C)C [Free MMAF, MMAF] (H-[NMeV]V[Dil][Dolaproine]F-OH) | killed | killed | comparable
2 | no binding | CH12 antibody (antibody, human IgG1, kappa, V domains shown, CH12 antibody as disclosed in CN 200810038848.8; detected with goat anti-human IgG) VH: DVQLQESGPGLVKPSQSLSLTCTVTAYSVTSDYAWNWIRQFPGNKLEWMGYISYSGTTRYNPSLKSRISITRDTSKNQFFLQLNSMTAEDTATYYCSRQGRGFPYWGQGTLVTVSA VL: DILMTQSPSSMSVSLGDTVSITCHASQDINSNIGWLQQKPGKSFKGLIYHGTNLEDGVPSRFSGSGSGADYSLTISSLESEDFADYYCVQYAQFPWTFGGGTKLEIKR |  |  | 
